The source of these data is ChEMBL document CHEMBL5149990, “New Protocol-Guided Exploitation of a Lysosomal Sulfatase Inhibitor to Suppress Cell Growth in Glioblastoma Multiforme” (J Med Chem, 2021).

The nature of series [1]: Inhibition of lysosome sulfatase (unknown origin) assessed as reduction in fluorescence intensity using 2-(2-Morpholinoethyl)-6-(((2S,3R,4S,5S,6R)-3,4,5-trihydroxy-6-(hydroxymethyl)tetrahydro-2H-pyran-2-yl)oxy)-1H-benzo[de]-isoquinoline-1,3(2H)-dione as substrate incubated for 60 mins by fluorescence based analysis. Format: subcellular, Homo sapiens.
Series [2] has as its system T98G. Briefly: Binding affinity to sulfatase in human T98G cells assessed as reduction in fluorescence intensity at 125 uM in presence of 2-(2-Morpholinoethyl)-6-(((2S,3R,4S,5S,6R)-3,4,5-trihydroxy-6-(hydroxymethyl)tetrahydro-2H-pyran-2-yl)oxy)-1H-benzo[de]-isoquinoline-1,3(2H)-dione by confocal fluorescence microscopic analysis. Format: cell-based.
The test system of series [3] is T98G. Briefly: Cytotoxicity against human T98G cells assessed as reduction in cell viability at 3.5 to 350 uM incubated for 48 hrs by MTT assay relative to control. The series is classed as toxicity, cell-based. Particulars: dose 3.5-350 µM.
Series [4] is filed under the species Homo sapiens. Briefly: Binding affinity to lysosome sulfatase (unknown origin) assessed as Km. Format: subcellular.
Series [5] is filed under the species Homo sapiens. Briefly: Binding affinity to lysosome sulfatase (unknown origin) assessed as Vmax. Format: subcellular.
The species entered for series [6] is Homo sapiens. Briefly: Binding affinity to sulfatase in human liver S9 fraction. Format: subcellular.
Series [7] has as its system T98G. Briefly: Cytotoxicity against human T98G cells assessed as reduction in cell viability incubated for 4 hrs by MTT assay. Format: toxicity, cell-based. For orientation: Tetrazolium assays rely on reduction of a dye to a coloured formazan, in cell work by metabolically active cells.
A short description of series [8]: Drug localization in lysosome of human T98G cells by Lyso-Tracker Red based confocal laser scanning microscopy. The series is classed as ADME, cell-based.
Series [9] relates to T98G. Nature of the series: Binding affinity to sulfatase in human T98G cells assessed as increase in fluorescence intensity at 40 uM by confocal fluorescence microscopic analysis. The series is classed as cell-based.

Active and inactive are the calls of the source. The rule behind the calls is not given here.

As usually defined, the IC50 is the concentration that inhibits the measured activity by half. For the compound `CC1(C)[C@H](C(=O)O)N2C(=O)C[C@H]2S1(=O)=O` [SULBACTAM], in series [1], the IC50 turned out to be 3.5 µM. Also, in series [2], the outcome was Active. Further, in series [3], the Activity stood at 34%.
By Km is commonly meant the substrate concentration at which the rate is half of its maximum. By Vmax is commonly meant the rate approached at saturating substrate. Turning to `O=C1c2cccc3c(O[C@@H]4O[C@H](CO)[C@@H](O)[C@H](O)[C@H]4O)ccc(c23)C(=O)N1CCN1CCOCC1`, the Michaelis-Menten constant (Km) in [4] amounted to 21.6 µM. The Vmax in [5] turned out to be 70.9 nmol/min/mg. In addition, the result in series [6] and in series [9] was Active. In [7], the Activity entry was “Non-Toxic”. For the same compound, in series [8], the Drug uptake result was “Active”.
